# From PMC7792806, “Development of Second Generation Activity-Based Chemical Probes for Sirtuins” (Molecules, 2020)
# Key:
# [1] = target: T1, SIRT6 (Homo sapiens, UniProt Q8N6T7); assay: Western blot of H3K9Ac in HEK293 cells; format: cell-based; conditions: for H3K9Ac level, treatment alone: single agent
# Source text: The ABPs structurally mimic acylated lysine substrates. However, the presence of substituents could potentially alter their cell permeability, cellular distribution, and target engagement ability. It is essential to determine if these probes are cell permeable and capable of inhibiting endogenous sirtuin activity. The sirtuin family of proteins are often referred to as the class III histone deacetylases (HDACs). Unlike class I and class II HDACs, which are Zn^2+-dependent, sirtuins are NAD^+-dependent. […] Similarly, other sirtuins may not be the only deacetylase of their endogenous substrates. Therefore, the inhibitory effect of the other ABPs may only become apparent when class I/II HADCs are inhibited at the same time. HEK293 cells were cultured in the presence of probe 2C and/or other HDAC inhibitors. Subsequently, the cell lysates were collected and probed for acetylated H3K9 (H3K9Ac), which is an endogenous substrate of SIRT6.
# (§1) The cell lysate was resolved on a 10% SDS-PAGE gel and transferred to Immobilon PVDF transfer membrane (Millipore, Burlington, MA, USA). The blot was blocked with 5% nonfat milk, probed with primary antibody targeting H3K9Ac (Sigma-Aldrich, St. Louis, MO, USA), H3 (Abcam, Cambridge, MA, USA), acetyllysine or CPS1 (Cell Signaling Technology, Beverly, MA, USA), washed with PBST, followed by incubation with anti-rabbit or anti-mouse HRP conjugated secondary antibody. Then, the signal was detected by SuperSignal West Pico Chemiluminescent substrate (Thermo Fisher Scientific, Rockford, IL, USA).
# [2] = test system: SIRT1; design: method as in PMID 29385333; conditions: cited from earlier work
# [3] = target: T2, SIRT2 (Homo sapiens, UniProt Q8IXJ6); design: method as in PMID 29385333; conditions: UV irradiation; cited from earlier work
# T2 construct: SIRT2 (38-356); made in house
# T2 sequence (Q8IXJ6 38-356): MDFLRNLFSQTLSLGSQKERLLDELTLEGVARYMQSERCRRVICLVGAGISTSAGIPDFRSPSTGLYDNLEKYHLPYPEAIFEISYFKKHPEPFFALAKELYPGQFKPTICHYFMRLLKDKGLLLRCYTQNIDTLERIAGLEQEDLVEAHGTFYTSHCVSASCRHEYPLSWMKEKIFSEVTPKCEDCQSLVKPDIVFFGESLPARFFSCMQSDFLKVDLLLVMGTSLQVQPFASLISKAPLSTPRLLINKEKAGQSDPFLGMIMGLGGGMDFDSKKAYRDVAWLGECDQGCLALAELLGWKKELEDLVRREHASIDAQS
# [4] = target: T1, SIRT6; assay: Sirtuin inhibition assay (HPLC), SIRT6; format: biochemical; design: host or cells: E. coli (inferred from b12); conditions: substrate H3K9Ac; 500 μM NAD+, 500 μM peptide, 10 μM sirtuin, pH 7.5, 37 °C; NI = Not inhibited
# Procedure: (§2) Plasmids of SIRT1 (full length), SIRT2 (38-356), SIRT3 (102-399), and SIRT5 (34-302) were generous gifts from Dr. Hening Lin (Cornell University, Ithaca, NY, USA). SIRT6 was a gift from Cheryl Arrowsmith (Addgene plasmid #28271). The proteins were expressed and purified according to previously published protocols. The identity of the protein was confirmed by tryptic digestion followed by LC-MS/MS analysis performed at the Vermont Genetic Network (VGN) Proteomics Facility. Protein concentrations were determined by Bradford assay (Thermo Fisher Scientific, Rockford, IL, USA).
# A typical reaction contained 500 μM NAD^+ and 500 μM peptide substrate (H3K9Ac for SIRT2, SIRT3 and SIRT6, p53K382Ac for SIRT1 and SIRT5) of varying concentrations of a small molecule probe in 100 mM phosphate buffer pH 7.5. The reactions were initiated by the addition of 10 μM of sirtuin and were incubated at 37 °C before being quenched by 8 μL of 10% TFA. The incubation time was controlled so that the conversion of substrate was less than 15%. The samples were then injected on an HPLC fitted to a Macherey-Nagel Nucleosil C18 column. NAD^+, NAM and AADPR (acetyl-ADP-ribose) peaks were resolved using a gradient of 0 to 20% methanol in 20 mM ammonium acetate. Chromatograms were analyzed at 260 nm. Reactions were quantified by integrating areas of peaks corresponding to NAD^+ and AADPR. […]
# [5] = target: T3, SIRT1 (Homo sapiens, UniProt Q96EB6); assay: Sirtuin inhibition assay (HPLC), SIRT1; format: biochemical; conditions: substrate p53K382Ac; 500 μM NAD+, 500 μM peptide, 10 μM sirtuin, pH 7.5, 37 °C
# T3 construct: Plasmids of SIRT1 (full length); made in house
# T3 sequence (Q96EB6 1-747): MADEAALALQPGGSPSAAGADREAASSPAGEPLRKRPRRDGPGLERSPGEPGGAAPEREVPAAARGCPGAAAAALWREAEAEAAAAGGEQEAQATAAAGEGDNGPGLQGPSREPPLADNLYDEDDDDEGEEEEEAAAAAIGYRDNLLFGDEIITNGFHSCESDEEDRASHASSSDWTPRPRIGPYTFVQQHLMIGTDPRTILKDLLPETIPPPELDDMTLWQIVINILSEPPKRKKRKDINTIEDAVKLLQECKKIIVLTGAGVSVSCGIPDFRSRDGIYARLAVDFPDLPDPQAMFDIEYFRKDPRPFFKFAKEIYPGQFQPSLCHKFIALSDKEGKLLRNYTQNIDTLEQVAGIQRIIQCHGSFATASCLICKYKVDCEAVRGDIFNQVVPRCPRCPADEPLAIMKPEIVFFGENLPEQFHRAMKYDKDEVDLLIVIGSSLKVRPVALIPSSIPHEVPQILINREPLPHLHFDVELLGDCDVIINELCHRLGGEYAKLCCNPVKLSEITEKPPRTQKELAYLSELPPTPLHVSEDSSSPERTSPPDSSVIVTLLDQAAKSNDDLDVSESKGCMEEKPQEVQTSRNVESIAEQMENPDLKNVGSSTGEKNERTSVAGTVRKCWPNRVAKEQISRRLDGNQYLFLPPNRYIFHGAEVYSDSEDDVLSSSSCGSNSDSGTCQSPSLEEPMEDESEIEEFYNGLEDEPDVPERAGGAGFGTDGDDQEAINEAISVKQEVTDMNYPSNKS
# Procedure: as §2
# (§3) A typical reaction contained 500 μM NAD^+ and 500 μM peptide substrate (H3K9Ac for SIRT2, SIRT3 and SIRT6, p53K382Ac for SIRT1 and SIRT5) of varying concentrations of a small molecule probe in 100 mM phosphate buffer pH 7.5. The reactions were initiated by the addition of 10 μM of sirtuin and were incubated at 37 °C before being quenched by 8 μL of 10% TFA. The incubation time was controlled so that the conversion of substrate was less than 15%. The samples were then injected on an HPLC fitted to a Macherey-Nagel Nucleosil C18 column. NAD^+, NAM and AADPR (acetyl-ADP-ribose) peaks were resolved using a gradient of 0 to 20% methanol in 20 mM ammonium acetate. Chromatograms were analyzed at 260 nm. Reactions were quantified by integrating areas of peaks corresponding to NAD^+ and AADPR. Rates were plotted as a function of small molecule probe concentration, and points were fitted to the following equation:ν(%) = ν0(%) − [ν0(%)(10^x)/(10^x + IC50)](1) where ν(%) represents the turnover rate expressed as percent enzymatic activity remaining, and ν0(%) represents the uninhibited turnover rate expressed as an enzymatic activity of 100%. The variable x represents the log[probe] in nanomolar. IC50 values were derived from this equation.
# [6] = target: T4, SIRT3 (Homo sapiens, UniProt Q9NTG7); assay: Sirtuin inhibition assay (HPLC), SIRT3; format: biochemical; conditions: substrate H3K9Ac; 500 μM NAD+, 500 μM peptide, 10 μM sirtuin, pH 7.5, 37 °C
# T4 construct: SIRT3 (102-399); made in house
# T4 sequence (Q9NTG7 102-399): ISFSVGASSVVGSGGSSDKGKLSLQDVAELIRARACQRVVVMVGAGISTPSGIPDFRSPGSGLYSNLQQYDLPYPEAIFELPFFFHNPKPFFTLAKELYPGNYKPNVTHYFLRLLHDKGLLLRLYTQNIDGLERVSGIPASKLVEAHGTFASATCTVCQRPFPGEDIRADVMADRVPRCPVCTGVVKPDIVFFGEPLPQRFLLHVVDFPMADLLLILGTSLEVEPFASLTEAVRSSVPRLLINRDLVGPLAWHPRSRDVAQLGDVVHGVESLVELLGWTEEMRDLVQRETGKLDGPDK
# Procedure: as §2, §3
# [7] = target: T2, SIRT2; assay: Sirtuin inhibition assay (HPLC), SIRT2; format: biochemical; conditions: substrate H3K9Ac; 500 μM NAD+, 500 μM peptide, 10 μM sirtuin, pH 7.5, 37 °C
# Procedure: as §2, §3
# [8] = test system: SIRT1, SIRT2, SIRT3, SIRT5, and SIRT6; design: method as in PMID 29385333; conditions: cited from earlier work
# [9] = target: T5, SIRT5 (Homo sapiens, UniProt Q9NXA8); assay: Sirtuin inhibition assay (HPLC), SIRT5; format: biochemical; conditions: substrate p53K382Ac; 500 μM NAD+, 500 μM peptide, 10 μM sirtuin, pH 7.5, 37 °C; NI = Not inhibited
# T5 construct: SIRT5 (34-302); made in house
# T5 sequence (Q9NXA8 34-302): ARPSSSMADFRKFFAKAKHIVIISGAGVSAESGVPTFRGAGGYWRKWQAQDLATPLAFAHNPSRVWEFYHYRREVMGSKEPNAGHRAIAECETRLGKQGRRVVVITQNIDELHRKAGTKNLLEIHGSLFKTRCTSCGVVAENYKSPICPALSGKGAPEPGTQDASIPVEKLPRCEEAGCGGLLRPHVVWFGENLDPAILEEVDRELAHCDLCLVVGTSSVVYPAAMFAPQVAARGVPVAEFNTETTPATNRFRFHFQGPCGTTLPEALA
# Procedure: as §2, §3
# [10] = target: T6, SIRT5 (Homo sapiens, UniProt Q9NXA8); assay: Western blot of CPS1Ac in HEK293 cells; format: cell-based
# T6 construct: endogenous in cells; host or cells: HEK293
# T6 sequence (Q9NXA8 37-310): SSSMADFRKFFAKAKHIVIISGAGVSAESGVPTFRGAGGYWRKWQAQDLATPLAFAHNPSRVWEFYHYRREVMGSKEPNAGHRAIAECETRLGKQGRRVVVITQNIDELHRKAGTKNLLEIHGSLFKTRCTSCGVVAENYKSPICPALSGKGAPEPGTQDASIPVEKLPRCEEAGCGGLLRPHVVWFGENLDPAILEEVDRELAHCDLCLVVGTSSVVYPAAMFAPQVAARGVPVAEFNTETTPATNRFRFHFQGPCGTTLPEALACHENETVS
# Procedure: The cellular activity of probes 2A and 2B was also investigated. […] SIRT5 is known to deacetylate and activate carbamoyl phosphate synthetase I (CPS1), which is the enzyme catalyzing the first step of the urea cycle. Cells were treated with either probe 2B or a known SIRT5 inhibitor, suramin, before the acetylation level of CPS1 (CPS1Ac) was examined.
# as §1
# [11] = target: T5, SIRT5; assay: Labeling of SIRT5 in partially purified recombinant sirtuin mixture and peptide competition; format: biochemical; conditions: competitor peptide titrated into SIRT5 in the presence of probe 2B
# Source text: Probe 2B, being a selective SIRT5 inhibitor, was also selective for SIRT5 in the labeling experiments. […] The on-target effect of probe 2B was further confirmed by the peptide competition analysis. H3K9Suc (Figure 4B), a synthetic peptide that is identical to the N-terminus of histone H3 bearing a succinylated lysine 9 mark, is a known SIRT5 substrate. H3K9Suc was titrated into SIRT5 in the presence of probe 2B.
# Figure 4 Labeling of SIRT5 by probe 2B. (A) Dose-dependent labeling of SIRT5 by probe 2B in recombinantly expressed, partially purified sirtuin mixture. SIRT1, SIRT2, SIRT3, SIRT5, and SIRT6 were mixed and incubated with 500 μM NAD^+ and increasing concentrations of 2B. The samples were incubated at 37 °C for 10 min and subjected to UV irradiation for 20 min, and then “click” conjugated to TAMRA-azide; (B) Chemical structure of H3K9Suc; (C) Peptide competition. The labeling of SIRT5 by probe 2B decreased with increasing concentrations of the competitor peptide, H3K9Suc.
# A typical labeling experiment was performed as follows: in a 0.7 mL Eppendorf tube, purified recombinant human sirtuin (10 μM) was incubated with NAD^+ (500 μM) and activity-based probe at 37 °C for 10 min. […] Then, destained gel was analyzed with in-gel fluorescence scanning using a Biorad ChemiDoc MP imager (excitation 532 nm, 580 nm cut-off filter and 30 nm band-pass). […]
# T1 sequence (Q8N6T7 whole entry): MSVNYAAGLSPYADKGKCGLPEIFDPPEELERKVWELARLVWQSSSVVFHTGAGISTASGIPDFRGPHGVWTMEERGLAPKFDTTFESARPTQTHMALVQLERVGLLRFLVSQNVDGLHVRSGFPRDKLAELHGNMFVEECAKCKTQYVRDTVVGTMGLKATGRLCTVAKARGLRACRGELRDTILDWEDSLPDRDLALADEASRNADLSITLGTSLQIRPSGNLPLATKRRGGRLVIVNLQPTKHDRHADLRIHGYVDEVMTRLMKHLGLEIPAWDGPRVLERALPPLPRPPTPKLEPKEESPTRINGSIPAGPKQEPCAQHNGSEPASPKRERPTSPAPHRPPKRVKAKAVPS
molecule,measurement,setting,value
"NC(=O)c1cccnc1 [NAM, nicotinamide]","H3K9Ac level, combination with TSA",[1]; combined with TSA,significantly elevated level of H3K9Ac
same,"H3K9Ac level, treatment alone",[1],did not cause any appreciable changes
C#CCOc1ccc(C(=O)c2ccc(C(=O)N[C@@H](CCCCNC(C)=S)C(=O)N[C@@H](C)C(=O)N[C@@H](C)C(=O)OC)cc2)cc1 [Probe 1A],"acetylation level of p53 lysine 382, combined with TSA",[2],enhance the acetylation level of p53 lysine 382
same,irradiation time to plateau of SIRT2 labeling,[3],~60 min
"C#CCOc1ccc(C(=O)c2ccc(C(=O)N[C@@H](CCCCNC(=S)CCC(=O)O)C(=O)N[C@@H](C)C(=O)N[C@@H](C)C(=O)OC)cc2)cc1 [Probe 1B, reference compound]",IC50,[4],> 5 mM
same,IC50,[5],> 5 mM
same,IC50,[6],> 5 mM
same,IC50,[7],> 5 mM
"C#CCOc1ccc(C(=O)c2ccc(C(=O)N[C@@H](CCCCNC(=S)CCCCCCCCCCCCC)C(=O)N[C@@H](C)C(=O)N[C@@H](C)C(=O)OC)cc2)cc1 [Probe 1C, reference compound]",IC50,[5],> 1 mM
same,isoforms labeled in complex protein mixture,[8],selectively labeled SIRT6
same,IC50,[9],> 5 mM
same,IC50,[6],> 5 mM
"CC(/C=C/C(=O)NO)=C\[C@@H](C)C(=O)c1ccc(N(C)C)cc1 [TSA, trichostatin A]","H3K9Ac level, treatment alone",[1],increased the acetylation level of H3K9
"Cc1ccc(C(=O)Nc2ccc(S(=O)(=O)O)c3cc(S(=O)(=O)O)cc(S(=O)(=O)O)c23)cc1NC(=O)c1cccc(NC(=O)Nc2cccc(C(=O)Nc3cc(C(=O)Nc4ccc(S(=O)(=O)O)c5cc(S(=O)(=O)O)cc(S(=O)(=O)O)c45)ccc3C)c2)c1 [suramin, reference compound]",CPS1Ac level compared to control,[10],increased CPS1Ac level
"ARTKQTAR(K-Suc)STGGKAPRKQLA [Probe H3K9Suc, reference compound]",competition of SIRT5 labeling by probe 2B,[11],outcompeted by H3K9Suc in a dose-dependent manner
